According to the supplement of paper PMC13380429:

Legend:
Details in all cases: 72 h
Caco-2 [1] = experiment: relative viability EC50 (midpoint between 100% and the lowest measured viability); higher = less toxic
Vero E6 [2] = experiment: as above
HepG2 [3] = experiment: as above
U2OS [4] = experiment: as above
Calu-3 [5] = experiment: as above
Caco-2 [6] = experiment: drug sensitivity score (DSS) for viability; higher = more toxic; extreme values may be limits of the assay
Vero E6 [7] = experiment: as above
HepG2 [8] = experiment: as above
U2OS [9] = experiment: as above
Calu-3 [10] = experiment: as above
Caco-2 [11] = experiment: cell viability relative to DMSO; higher = less toxic
Vero E6 [12] = experiment: as above
HepG2 [13] = experiment: as above
U2OS [14] = experiment: as above
Calu-3 [15] = experiment: as above

Row | SMILES | relative viability EC50 (Caco-2 [1]) | relative viability EC50 (Vero E6 [2]) | relative viability EC50 (HepG2 [3]) | relative viability EC50 (U2OS [4]) | relative viability EC50 (Calu-3 [5]) | drug sensitivity score (Caco-2 [6]) | drug sensitivity score (Vero E6 [7]) | drug sensitivity score (HepG2 [8]) | drug sensitivity score (U2OS [9]) | drug sensitivity score (Calu-3 [10]) | cell viability (Caco-2 [11]; 1 nM) | cell viability (Caco-2 [11]; 10 nM) | cell viability (Caco-2 [11]; 100 nM) | cell viability (Caco-2 [11]; 1000 nM) | cell viability (Caco-2 [11]; 10000 nM) | cell viability (Vero E6 [12]; 1 nM) | cell viability (Vero E6 [12]; 10 nM) | cell viability (Vero E6 [12]; 100 nM) | cell viability (Vero E6 [12]; 1000 nM) | cell viability (Vero E6 [12]; 10000 nM) | cell viability (HepG2 [13]; 1 nM) | cell viability (HepG2 [13]; 10 nM) | cell viability (HepG2 [13]; 100 nM) | cell viability (HepG2 [13]; 1000 nM) | cell viability (HepG2 [13]; 10000 nM) | cell viability (U2OS [14]; 1 nM) | cell viability (U2OS [14]; 10 nM) | cell viability (U2OS [14]; 100 nM) | cell viability (U2OS [14]; 1000 nM) | cell viability (U2OS [14]; 10000 nM) | cell viability (Calu-3 [15]; 1 nM) | cell viability (Calu-3 [15]; 10 nM) | cell viability (Calu-3 [15]; 100 nM) | cell viability (Calu-3 [15]; 1000 nM) | cell viability (Calu-3 [15]; 10000 nM)
1 | Cc1ccccc1N1CCN(S(=O)(=O)C[C@]23CC[C@H](C[C@@H]2NC(=O)[C@@H](N)CCS(C)(=O)=O)C3(C)C)CC1 | > 10 µM | > 10 µM | > 10 µM | > 10 µM | > 10 µM | 0 | 0 | 0 | 0 | 0 | 97.5% | 93.3% | 90% | 108% | 96.5% | 101% | 93.8% | 98% | 87.6% | 110% | 109% | 94.7% | 107% | 111% | 108% | 95.3% | 96.4% | 95.8% | 101% | 103% | 98.2% | 103% | 94.3% | 105% | 99.5%
2 | FC(F)(F)c1ccc(N2CCNCC2)nc1Cl | > 10 µM | > 10 µM | > 10 µM | > 10 µM | > 10 µM | 0 | 0 | 0 | 0 | 0 | 101% | 98.5% | 107% | 104% | 96.4% | 101% | 98% | 95.9% | 95.6% | 95.2% | 108% | 96.2% | 92% | 106% | 104% | 97.4% | 99.9% | 95.2% | 100% | 92.7% | 96.1% | 105% | 93.7% | 106% | 107%
3 | O=C(Nc1ccc(S(=O)(=O)Nc2ccccc2Cl)c(Cl)c1)c1ccccn1 | > 10 µM | > 10 µM | > 10 µM | > 10 µM | > 10 µM | 0 | 0 | 0 | 0 | 1.8 | 95.7% | 88.6% | 104% | 101% | 89.8% | 91.6% | 96.7% | 93.6% | 101% | 105% | 99.3% | 99.8% | 91.4% | 101% | 103% | 94.8% | 93.7% | 103% | 97.8% | 98.6% | 108% | 91.9% | 89.8% | 87.3% | 98.2%
4 | O=C(Nc1cccc(Cl)c1)c1ccccn1 | > 10 µM | > 10 µM | > 10 µM | > 10 µM | > 10 µM | 0 | 0 | 0 | 0 | 0 | 87.9% | 102% | 98% | 96.8% | 102% | 107% | 102% | 107% | 99.3% | 103% | 111% | 100% | 105% | 97.3% | 107% | 102% | 104% | 99.8% | 108% | 101% | 94.5% | 95.8% | 95.9% | 114% | 102%
5 | O=C(Nc1cccnn1)N1CCC(=Cc2cccc(Oc3ccc(C(F)(F)F)cn3)c2)CC1 | > 10 µM | > 10 µM | 2.33 µM | > 10 µM | > 10 µM | 0.9 | 0 | 4.7 | 0 | 0.2 | 100% | 104% | 102% | 96.4% | 81.4% | 96.1% | 93.3% | 93.2% | 87.3% | 96.1% | 99.9% | 97.5% | 106% | 93.3% | 34.1% | 94.3% | 96.2% | 96.3% | 97.9% | 91.2% | 104% | 95.3% | 92% | 95.3% | 84.9%
6 | O=C(Nc1cnc(Cl)nc1)c1ccc(F)c(F)c1 | > 10 µM | > 10 µM | > 10 µM | > 10 µM | > 10 µM | 0 | 0 | 0 | 0 | 0 | 101% | 96.7% | 95% | 95.5% | 93.8% | 94.5% | 92.1% | 99.4% | 96.9% | 95.4% | 96.5% | 96.9% | 97.7% | 96.5% | 93.3% | 102% | 95.1% | 95.6% | 98% | 98.9% | 98.5% | 98.9% | 90.7% | 95.5% | 103%
7 | C[C@@H]1c2ccccc2CN1CC1=NCCN1 (racemic) | > 10 µM | > 10 µM | > 10 µM | > 10 µM | > 10 µM | 0 | 0 | 0 | 0 | 0 | 100% | 92.4% | 89.9% | 100% | 121% | 95.9% | 97.8% | 95.4% | 92.9% | 102% | 100% | 86.9% | 109% | 116% | 116% | 97.4% | 94.8% | 101% | 96.3% | 104% | 107% | 96.5% | 102% | 108% | 114%
8 | O=C(NCc1ccc(F)cc1)N1CCN2C(=O)OC(c3ccccc3)(c3ccccc3)[C@@H]2C1 (racemic) [SHA-68] | > 10 µM | > 10 µM | > 10 µM | > 10 µM | > 10 µM | 0.5 | 0 | 0 | 0 | 0 | 101% | 101% | 89.1% | 93.6% | 85% | 97.1% | 96.8% | 98.3% | 102% | 100% | 100% | 102% | 98% | 107% | 110% | 101% | 95.6% | 100% | 96.6% | 96.8% | 99.7% | 110% | 104% | 100% | 97.2%
9 | CCS(=O)(=O)N(C)[C@@H]1c2cc(C#N)ccc2OC(C)(C)[C@H]1O.CCS(=O)(=O)N(C)[C@H]1c2cc(C#N)ccc2OC(C)(C)[C@@H]1O (racemic) [chromanol-(+/-)] | > 10 µM | > 10 µM | > 10 µM | > 10 µM | > 10 µM | 0 | 0 | 0 | 0 | 0 | 90.9% | 89.9% | 100% | 106% | 93.5% | 101% | 102% | 101% | 103% | 95.6% | 106% | 105% | 100% | 96.7% | 94.6% | 100% | 96.9% | 102% | 96.2% | 102% | 103% | 99.8% | 92.5% | 102% | 97.5%
10 | Cc1ccc(Cl)c(OC[C@H](O)CNC(C)C)c1 [1-(2-chloro-5-methylphenoxy)-3-(isopropylamino)-2-propanol] | > 10 µM | > 10 µM | > 10 µM | > 10 µM | > 10 µM | 0 | 0 | 0 | 0 | 0 | 95.1% | 101% | 99.1% | 91.1% | 94.8% | 104% | 103% | 95.9% | 104% | 92.8% | 93.5% | 100% | 108% | 104% | 103% | 104% | 97.2% | 101% | 106% | 101% | 96.6% | 101% | 103% | 108% | 102%
11 | CC(=O)N1CCN(C)CC1 [1-acetyl-4-methylpiperazine] | > 10 µM | > 10 µM | > 10 µM | > 10 µM | > 10 µM | 0 | 0 | 0 | 0 | 0 | 100% | 93.6% | 101% | 95.7% | 97.3% | 105% | 104% | 104% | 98.2% | 95.9% | 104% | 111% | 101% | 99.5% | 100% | 103% | 99.1% | 96.2% | 99.8% | 102% | 89.8% | 86.6% | 95% | 100% | 93.8%
12 | COc1ccc2[nH]c(I)c(CCNC(C)=O)c2c1 [2-iodomelatonin] | > 10 µM | > 10 µM | > 10 µM | > 10 µM | > 10 µM | 0 | 0 | 0 | 0 | 0 | 98.5% | 106% | 94.6% | 104% | 96.2% | 94.6% | 93.1% | 92.4% | 94.9% | 108% | 105% | 98.6% | 113% | 96.5% | 105% | 95.3% | 103% | 94.9% | 97.9% | 102% | 99.5% | 100% | 103% | 92.7% | 94.8%
13 | c1ccc([C@H]2CNCc3ccccc32)cc1 [4-phenyl-1,2,3,4-tetrahydroisoquinoline] | > 10 µM | > 10 µM | > 10 µM | > 10 µM | > 10 µM | 0 | 0 | 0 | 0 | 0 | 98.1% | 109% | 97.3% | 103% | 103% | 96.7% | 99.4% | 100% | 99.6% | 98.8% | 101% | 91.7% | 103% | 104% | 96.7% | 99.9% | 101% | 94.1% | 94.9% | 100% | 101% | 109% | 92.3% | 102% | 105%
14 | C[C@@H]1CC[C@@]2(OC1)O[C@H]1C[C@H]3[C@@H]4CC=C5C[C@@H](O[C@@H]6O[C@H](CO)[C@@H](O[C@@H]7O[C@@H](C)[C@H](O)[C@@H](O)[C@H]7O)[C@H](O)[C@H]6O[C@@H]6O[C@@H](C)[C@H](O)[C@@H](O)[C@H]6O)CC[C@]5(C)[C@H]4CC[C@]3(C)[C@H]1[C@@H]2C [dioscin] | 1.56 µM | 1.42 µM | 1.59 µM |  | 1.68 µM | 9.1 | 9.7 | 9.2 |  | 8.7 | 97.9% | 92.6% | 95.2% | 75.9% | 2.3% | 97% | 103% | 98.4% | 71.1% | 0.9% | 96.8% | 97.5% | 90.1% | 76.2% | -0.2% |  |  |  |  |  | 96.7% | 89.7% | 97.9% | 79.3% | 2.9%
15 | CN1C(C)(C)CCCC1(C)C [pempidine] | > 10 µM | > 10 µM | > 10 µM |  | > 10 µM | 0 | 0 | 0.1 |  | 0 | 102% | 89.1% | 95.1% | 99.5% | 109% | 97.4% | 100% | 95.1% | 95.7% | 94.4% | 96% | 103% | 98.1% | 105% | 84.7% |  |  |  |  |  | 114% | 105% | 98.3% | 107% | 110%
